Data on eleven molecules can be found in ChEMBL document CHEMBL1138451, “Significance of interactions of BACE1-Arg235 with its ligands and design of BACE1 inhibitors with P2 pyridine scaffold” (Bioorg Med Chem Lett, 2009).

Test [1] deals with T1, Beta-secretase 1 (Homo sapiens, UniProt P56817). As to the kind of experiment: Inhibition of human recombinant Arg235 region of BACE1 by FRET assay.
For test [2], the target named is T1, Beta-secretase 1. As to the kind of experiment: Inhibition of human recombinant Arg235 region of BACE1 at 0.2 uM by FRET assay.
Test [3] concerns the target T1, Beta-secretase 1. In words: Inhibition of human recombinant Arg235 region of BACE1 at 2 uM by FRET assay.

Molecules are shown by their SMILES.

T1 sequence (P56817 whole entry): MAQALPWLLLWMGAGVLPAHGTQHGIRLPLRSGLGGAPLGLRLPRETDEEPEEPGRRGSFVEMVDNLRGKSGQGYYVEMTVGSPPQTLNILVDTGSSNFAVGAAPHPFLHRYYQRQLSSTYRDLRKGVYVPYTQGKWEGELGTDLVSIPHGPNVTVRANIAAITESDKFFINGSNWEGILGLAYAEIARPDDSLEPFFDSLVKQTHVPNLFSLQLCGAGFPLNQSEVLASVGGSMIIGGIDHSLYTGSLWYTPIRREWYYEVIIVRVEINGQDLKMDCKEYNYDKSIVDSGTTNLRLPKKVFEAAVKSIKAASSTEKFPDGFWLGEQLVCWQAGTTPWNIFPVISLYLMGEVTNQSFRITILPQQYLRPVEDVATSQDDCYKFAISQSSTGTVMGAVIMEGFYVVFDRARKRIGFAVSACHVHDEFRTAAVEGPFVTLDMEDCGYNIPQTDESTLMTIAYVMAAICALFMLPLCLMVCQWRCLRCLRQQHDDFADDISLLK

Usually IC50 stands for the midpoint of a concentration-inhibition curve. Regarding `O=C(N[C@@H](Cc1ccccc1)[C@H](O)C(=O)Nc1cccc(-c2nnn[nH]2)c1)c1cc(I)cc(C(=O)N2COC[C@@H]2c2ccc(F)cc2)n1`, the IC50 at Beta-secretase 1 [1] amounted to 10 nM.

The inhibition is the relative decrease from the control value, in per cent. Take `O=C(N[C@@H](Cc1ccccc1)[C@H](O)C(=O)Nc1cccc(-c2nn[nH]n2)c1)c1cc(Cl)cc(C(=O)N2COC[C@@H]2c2ccc(F)cc2)n1`: the inhibition came out at 91% at Beta-secretase 1 [2] and 99% at Beta-secretase 1 [3]. Also, the 50% inhibitory concentration (IC50) at Beta-secretase 1 [1] turned out to be 13 nM.

As for `O=C(N[C@@H](Cc1ccccc1)[C@H](O)C(=O)Nc1cccc(-c2nnn[nH]2)c1)c1cc(Br)cc(C(=O)N2COC[C@@H]2c2ccccc2)n1`, the IC50 on Beta-secretase 1 [1] turned out to be 15 nM.

Take `O=C(N[C@@H](Cc1ccccc1)[C@H](O)C(=O)Nc1cccc(-c2nn[nH]n2)c1)c1cc(Cl)cc(C(=O)N2COC[C@@H]2c2ccccc2)n1`: the values for the inhibition at Beta-secretase 1 [2] and at Beta-secretase 1 [3] were 87% and 98%, respectively.

Regarding `O=C(N[C@@H](Cc1ccccc1)[C@H](O)C(=O)Nc1cccc(-c2nn[nH]n2)c1)c1cc(I)cc(C(=O)N2COC[C@@H]2c2ccc(F)cc2)n1`, the inhibition is 92% at Beta-secretase 1 [2] and 99% at Beta-secretase 1 [3].

On to `O=C(N[C@@H](Cc1ccccc1)[C@H](O)C(=O)Nc1cccc(-c2nn[nH]n2)c1)c1cc(Br)cc(C(=O)N2COC[C@@H]2c2ccccc2)n1`, for which the values for the inhibition at Beta-secretase 1 [2] and on Beta-secretase 1 [3] were 88% and 99%, respectively.

`O=C(N[C@@H](Cc1ccccc1)[C@H](O)C(=O)Nc1cccc(-c2nn[nH]n2)c1)c1cc(I)cc(C(=O)N2COC[C@@H]2c2ccccc2)n1`: the inhibition at Beta-secretase 1 [2] came to 86%; at Beta-secretase 1 [3], 99%. Moreover, at Beta-secretase 1 [1], the IC50 was found to be 24 nM.

Turning to `O=C(N[C@@H](Cc1ccccc1)[C@H](O)C(=O)Nc1cccc(-c2nn[nH]n2)c1)c1cccc(C(=O)N2COC[C@@H]2c2ccccc2)n1`, the inhibition at Beta-secretase 1 [3] is 89%.

On to `O=C(N[C@@H](Cc1ccccc1)[C@H](O)C(=O)Nc1cccc(-c2nnn[nH]2)c1)c1cc(Br)cc(C(=O)N2COC[C@@H]2c2ccc(F)cc2)n1`, for which the concentration for half-maximal inhibition (IC50) on Beta-secretase 1 [1] was 9 nM.

`O=C(N[C@@H](Cc1ccccc1)[C@H](O)C(=O)Nc1cccc(-c2nnn[nH]2)c1)c1cc(Cl)cc(C(=O)N2COC[C@@H]2c2ccccc2)n1`: at Beta-secretase 1 [1], the IC50 was 22 nM.

With `O=C(N[C@@H](Cc1ccccc1)[C@H](O)C(=O)Nc1cccc(-c2nn[nH]n2)c1)c1cc(Br)cc(C(=O)N2COC[C@@H]2c2ccc(F)cc2)n1`, the results for the inhibition at Beta-secretase 1 [2] and on Beta-secretase 1 [3] were 93% and 99%, respectively.
